# Ends that are not written are not given here.
# Experiments:
# Type in all cases: cell-based, human
# [1] = test system: p-UPF1 (Thr28); experiment: Western blot of p-UPF1 (Thr28) in CPP-peptide-treated hPSCs; conditions: relative to CPP-P1 = 100, n = 3
# Protocol: (§1) For CPP-conjugated peptide delivery, HeLa, 293T, and PA-1 cells were incubated with CPP-conjugated peptides or CPP-FITC at 2 μM in DMEM with 10% FBS for 12 h a day before cell harvest. hPSCs were treated with CPP-conjugated peptides at 10 μM in mTeSR Plus Medium, and the peptide-containing medium was changed every day over 10 days. The ROCK inhibitor (Tocris Bioscience, Y-27632) treated-hPSCs were dissociated into single cells using Accutase (Merck, SCR005) and differentiated into ectoderm, mesoderm, and endoderm using the STEMdiff Trilineage Differentiation Kit ([…] Technologies, 05230) following the manufacturer’s protocol. Differentiated cells treated with CPP-conjugated peptides were analysed at 0, 3, and 5 days for ectoderm and endoderm, and at 0, 3, and 4 days for mesoderm.
# Protein samples were loaded for electrophoresis on sodium dodecyl sulphate (SDS) polyacrylamide gels, followed by Coomassie blue staining or transferred to nitrocellulose membranes (Cytiva) for WB. After blocking with 5% non-fat milk (Cellconic) in Tris-buffered saline with Tween-20 for 30 min at room temperature, the membranes were incubated with the following primary antibodies: anti-FLAG (GenScript, A00187; 1:2000), UPF1 (Cell Signaling Technology, 12040; 1:4000), UPF2 (Cell Signaling Technology, 11875; 1:2000), eIF4E (Cell Signaling Technology, 2067; 1:2000), β-actin (Sigma-Aldrich, A2228; 1:4000), GST (Cytiva, 27-4577-01; 1:2000), MYC (Calbiochem, OP10; 1:2000), Calnexin (Cell Signaling Technology, 2679; 1:4000), LIN28A (Cell Signaling Technology, 3978; 1:2000), pSer1096 phosphorylated UPF1 (1:2000)[58], or p-Thr28 phosphorylated UPF1 (ImmuQuest, IQ653; 1:2000). Primary antibodies were incubated overnight at 4 °C and then washed thrice with TBS-T, followed by incubation with secondary antibodies: Goat anti-Rabbit IgG (Invitrogen, 31460; 1:4000), Goat anti-Mouse IgG (Invitrogen, 31430; 1:4000), or Horse anti-Goat IgG (Vector Laboratories, PI-9500; 1:4000) for 1 h at room temperature. For pull-downed protein detection, all primary and secondary antibodies were diluted at 1:10,000. The blots were imaged using ChemiDoc XRS+ System (Bio-Rad) and the greyscale intensity values were quantified using Image Lab 3.0 software (Bio-Rad).
# DAPI FITC Merge DAPI FITC Merge CHA15 H9 Pro2 H9
# No peptide CPP-FITC Calnexin
# For 2-day treatm ent For 4-day treatm ent […]
# Student’s t-test was used. Data are presented as m ean values ± S.D (b) and mean values ± SEM (c and d). All statistical test us ed wer e two-s ided. T he m inim um num ber of independent biological replicate experim ents was a, b, and d n = 3, c n = 5. T he experim ents wer e conducted three tim es, each iteration producing consistent results. […]
# [2] = test system: CHA15 cells; experiment: Flow cytometry of SOX1, DLK1 and LHX2 during ectodermal differentiation (Fig. 7b, Supplementary Fig. 7f); parameters: unit not given here; conditions: for DLK1 FACS, mean / LHX2 FACS, mean / SOX1 FACS, mean: mean from t test output, scale differs from set1-set3 values
# Protocol: as §1
# To evaluate the relative cell number expressing the indicated proteins, CHA15 cells with the indicated CPP-conjugated peptide were fixed with BD Cytofix Fixation Buffer (BD Biosciences Pharmingen, 554655) followed by permeabilization with 0.1% BSA/PBS solution supplemented with 10% NGS and 0.3% Triton X-100 for 1 h at 4 °C. After washing, cells were incubated with the primary antibodies (OCT4 1:1000, NANOG 1:1000, DLK1 1:1000, SOX2 1:1000, LHX2 1:1000) and then, secondary antibody, Alexa Fluor 488 (1:1000), was applied. The positive cells were determined using flow cytometry (FACSCanto, BD Pharmingen), and data was analysed using the Flow Jo-v10 software program.
# [3] = test system: hPSCs (CHA15, H9, Pro2); experiment: Long-term culture with CPP-peptides: morphology, spontaneous differentiation, lineage marker RT-qPCR (Supplementary Fig. 6c)
# Protocol: as §1, with “and the peptide-containing medium was changed every day over 10 days.” left out, “mesoderm. […]” for “mesoderm.”
# cDNA was synthesised using RevertAid Reverse Transcriptase (Thermo Fisher Scientific, EP0441) with synthesised random hexamer (Macrogen) for total RNA or stem-loop primers for miRNA. For RT-qPCR reactions, the SensiFAST SYBR No-ROX kit (Meridian Bioscience) was used according to the manufacturer’s protocol. All data analysis and visualisation were conducted using R 3.6.1 [www.r-project.org] or GraphPad Prism 10. RT primers for miRNA and RT-qPCR primer sequences are provided in Supplementary Data 6. […]
# Cell m orphology was visualised by phase contrast m icroscopy. T he red boundary indicated the spontaneously differentiated hPSCs. RT -qPCR was perform ed to m easure the relative levels of each lineage m ark er. […]
# 5p and m iR-16- 5p was shown as CDF graphs. T he relative level of m RNA was norm alised to that of U6 snRNA in (c, d, and f). K–S tests were used for e and f. Unpaired Student’s t-test was used for c , d, and f . * p < 0.05, ** p < 0.01, *** p < 0.001. Exact p -values were provided in Source data. Data are presented as m ean values ± SEM. All statistical test used were two- sided. T he m inim um num ber of independent biological replicate experim ents was a and e n = 2, b–d and f n = 3. T he experim ents were conducted three tim es, each iteration producing consistent results.
# [4] = RT-qPCR, CHA15 cell, group 1, mean of set1-set3, Mean of A = 1
# [5] = RT-qPCR, CHA15 cell, group 2, mean of set1-set3, Mean of A = 1
# [6] = RT-qPCR, CHA15 cell, group 3, mean of set1-set3, Mean of A = 1
# [7] = RT-qPCR, H9 cell, group 1, mean of set1-set3, Mean of A = 1
# [8] = RT-qPCR, H9 cell, group 2, mean of set1-set3, Mean of A = 1
# [9] = RT-qPCR, Pro2 cell, group 1, mean of set1-set3, Mean of A = 1
# [10] = RT-qPCR, Pro2 cell, group 2, mean of set1-set3, Mean of A = 1
# [11] = vs. P1, ± SEM, unpaired t test, df=4
substance,measurement,setting,value
"N-QKLDQKELQLEPM-C [P1, reference compound]","p-UPF1 (Thr28)/Calnexin, mean","[1]; CHA15, 2-day treatment",100%
same,"p-UPF1 (Thr28)/Calnexin, mean","[1]; H9, 2-day treatment",100%
same,"p-UPF1 (Thr28)/Calnexin, mean","[1]; H9, 4-day treatment",100%
same,"p-UPF1 (Thr28)/Calnexin, mean","[1]; Pro2, 2-day treatment",100%
same,"DLK1 FACS, mean",[2],6634
same,"LHX2 FACS, mean",[2],6112
same,"SOX1 FACS, mean",[2],8503
"KKKWCRKKKSSADEKRYRALKRTAERELLMNA [CPP-P8, CPP conjugated to P8]",cell morphology and spontaneous differentiation,"[3]; hPSCs, over 15 days","altered the cell morphology, induced spontaneous differentiation, and regulated the levels of differentiated makers"
same,levels of differentiated markers,"[3]; hPSCs, proliferation",upregulated the levels of differentiated markers
KKKWCRKKKSSADEKRYRALKRTAERELLMNA [P8],"p-UPF1 (Thr28)/Calnexin, mean","[1]; CHA15, 2-day treatment",277%
same,"p-UPF1 (Thr28)/Calnexin, mean","[1]; H9, 2-day treatment",91%
same,"p-UPF1 (Thr28)/Calnexin, mean","[1]; H9, 4-day treatment",183%
same,"p-UPF1 (Thr28)/Calnexin, mean","[1]; Pro2, 2-day treatment",250%
same,"CDH9, Mean of column B",[3]; [4],3.237
same,"DLK1, Mean",[3]; [4],13.42
same,"DMBX1, Mean",[3]; [4],7.311
same,"RAX, Mean",[3]; [4],3.757
same,"DLK1, Mean",[3]; [5],23.82
same,"LHX2, Mean",[3]; [5],41.74
same,"POU5F1, Mean of column B",[3]; [5],0.6246
same,"RAX, Mean",[3]; [5],18.83
same,"CDH9, Mean of column B",[3]; [6],2.791
same,"LHX2, Mean",[3]; [6],5.887
same,"POU5F1, Mean of column B",[3]; [6],0.7547
same,"RAX, Mean",[3]; [6],2.315
same,"DLK1, Mean",[3]; [7],3.511
same,"DMBX1, Mean",[3]; [7],5.531
same,"LHX2, Mean",[3]; [7],2.919
same,"PAX6, Mean of column B",[3]; [7],3.972
same,"DLK1, Mean",[3]; [8],2.588
same,"LHX2, Mean",[3]; [8],115.8
same,"NANOG, Mean",[3]; [8],0.1136
same,"TBX6, Mean of column B",[3]; [8],22.31
same,"DLK1, Mean",[3]; [9],6.526
same,"LHX2, Mean",[3]; [9],0.3053
same,"POU5F1, Mean of column B",[3]; [9],0.5752
same,"RAX, Mean",[3]; [9],3.096
same,"DLK1, Mean",[3]; [10],9.273
same,"LHX2, Mean",[3]; [10],16.93
same,"NANOG, Mean",[3]; [10],0.2569
same,"POU5F1, Mean of column B",[3]; [10],0.08931
same,"DLK1 FACS, mean",[2],8315
same,"LHX2 FACS, mean",[2],9545
same,"SOX1 FACS, mean",[2],5506
same,"DLK1 FACS, difference between means ± SEM",[2]; [11],1682 ± 236.3
same,"LHX2 FACS, difference between means ± SEM",[2]; [11],3433 ± 333.3
same,"SOX1 FACS, difference between means ± SEM",[2]; [11],-2997 ± 246.0
